Test results taken from patent US9709558B2, “Compound arrays for sample profiling” (priority 2009, dated 2017).

Key:
[1] = system: KLH; experiment: Anti-KLH serum IgG ELISA in immunized mice; type: in vivo; conditions: archived murine serum samples
[2] = system: whole virus; experiment: Serum IgG ELISA against whole virus in immunized mice; type: in vivo; conditions: archived murine serum samples
[3] = system: influenza A/PR/8/34; type: in vivo, BALB/c mice; conditions: lethal challenge with influenza A/PR/8/34

keyhole limpet hemocyanin [KLH]
average anti-KLH IgG titer [1]: 819,000 | average IgG titer against whole virus [2]: 800 | outcome following lethal challenge [3]: no benefit over naives
